Our source for the IC50 values is patent publication US9868717B2, “Tricyclic sulphonamide compounds and methods of making and using same” (Zafgen, Inc., priority 2012, dated 2018).

In general, IC50 refers to the concentration at which inhibition is half-maximal.

T1 sequence (P50579 whole entry): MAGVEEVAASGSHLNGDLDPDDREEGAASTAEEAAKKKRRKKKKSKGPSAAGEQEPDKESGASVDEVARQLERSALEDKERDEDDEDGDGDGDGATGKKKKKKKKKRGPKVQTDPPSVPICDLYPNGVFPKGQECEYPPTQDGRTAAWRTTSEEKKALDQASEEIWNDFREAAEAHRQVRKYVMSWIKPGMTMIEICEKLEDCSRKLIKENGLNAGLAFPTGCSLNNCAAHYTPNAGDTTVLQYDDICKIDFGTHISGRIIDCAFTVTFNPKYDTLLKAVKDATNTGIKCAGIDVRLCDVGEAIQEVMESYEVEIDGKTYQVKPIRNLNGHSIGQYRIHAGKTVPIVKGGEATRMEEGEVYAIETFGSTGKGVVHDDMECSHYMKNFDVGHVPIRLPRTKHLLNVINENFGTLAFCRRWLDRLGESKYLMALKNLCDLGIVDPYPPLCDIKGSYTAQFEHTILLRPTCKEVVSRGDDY

One test addresses T1, Human recombinant MetAP2 (Homo sapiens, UniProt P50579).
T1 construct: made in house; host or cells: Sf9 insect cells
Put plainly: inhibition of recombinant human MetAP2 activity (MAS substrate, amino acid oxidase/Amplex red fluorescence). The class given is biochemical. Particulars: manganese enzyme, 30 minutes at 25° C., pH 7.5, 0.75 mM MAS substrate, 1% DMSO. The procedure: Compounds are tested for their capacity to inhibit recombinant human MetAP2 activity using the following assay.
Human recombinant MetAP2 expressed in Sf9 cells followed by affinity purification and EDTA treatment to remove endogenous active site cation was dialysed against MnCl2 to produce the manganese enzyme used in the assay. The assay was carried out for 30 minutes at 25° C. in 50 mM HEPES buffer containing 100 mM NaCl, pH 7.5 the presence of 0.75 mM Methionine-Alanine-Serine (MAS) substrate and 50 μg/ml amino acid oxidase using a dilution of purified MetAP2 giving >3-fold signal:noise. Cleavage of the substrate by MetAP2 and oxidation of free methionine by amino acid oxidase was detected and quantified using fluorescence generated by Amplex red (10-acetyl-3,7-dihydroxyphenoxazine) in combination with horseradish peroxidase which detects H2O2 released during the oxidation step. The fluorescent signal was detected using a multiwell fluorimeter. Compounds were diluted in DMSO prior to addition to assay buffer, the final DMSO concentration in the assay being 1%.
The IC50 is defined as the concentration at which a given compound achieves 50% inhibition of control. IC50 values are calculated using the XLfit software package (version 2.0.5).
`O=C(O)c1c(NS(=O)(=O)c2ccc(F)cc2/C=C2\CN3CCC2CC3)ccc2c1OC[C@@H]1C[C@H]21` (single isomer, unassigned) [Example 10]: the IC50 is less than 50 nM.
Same read-out and setting: the same measure for `O=C(O)c1c(NS(=O)(=O)c2ccc(F)cc2/C=C2/CN3CCC2CC3)ccc2c1OC[C@@H]1C[C@H]21` (single isomer, unassigned) [Example 11]: less than 50 nM; for `CCN1CCC/C(=C\c2cc(F)ccc2S(=O)(=O)Nc2ccc3c(c2C(=O)O)OC[C@@H]2C[C@H]32)C1` (single isomer, unassigned) [Example 12]: less than 50 nM.
On the same count and under the same terms, then `CCN1CCC/C(=C/c2cc(F)ccc2S(=O)(=O)Nc2ccc3c(c2C(=O)O)OC[C@@H]2C[C@H]32)C1` (single isomer, unassigned) [Example 13], with 50 to 500 nM; and `CCN1CCCC(Cc2cc(F)ccc2S(=O)(=O)Nc2ccc3c(c2C(=O)O)OCC2CC32)C1` (single isomer, unassigned) [Example 14], with less than 50 nM; and `CCN1CCCC(Cc2cc(F)ccc2S(=O)(=O)Nc2ccc3c(c2C(=O)O)OCC2CC32)C1` (single isomer, unassigned) [Example 15], with less than 50 nM.
Same read-out and setting: the same measure for `CCN1[C@@H]2CC[C@H]1C[C@@H](Cc1cc(F)ccc1S(=O)(=O)Nc1ccc3c(c1C(=O)O)OC[C@@H]1C[C@H]31)C2` (single isomer, unassigned) [Example 18]: less than 50 nM; for `CCN1[C@@H]2CC[C@H]1C[C@H](Cc1cc(F)ccc1S(=O)(=O)Nc1ccc3c(c1C(=O)O)OC[C@@H]1C[C@H]31)C2` (single isomer, unassigned) [Example 19]: less than 50 nM; for `CCN1CCC(NC(=O)Cc2cc(F)ccc2S(=O)(=O)Nc2ccc3c(c2C(=O)O)OC[C@@H]2C[C@H]32)C1` (stereo in doubt) [Example 30, (1aR,7bS)-5-{2-[((S)-1-Ethylpyrrolidin-3-ylcarbamoyl)methyl]-4-fluoro-benzenesulfonylamino}-1,1a,2,7b-tetrahydrocyclopropa[c]chromene-4-carboxylic acid]: less than 50 nM.
Take `CCN(CC)CC1CC1c1cc(F)ccc1S(=O)(=O)Nc1ccc2c(c1C(=O)O)OC[C@@H]1C[C@H]21` (stereo partly drawn) [Example 1, (1aR,7bS)-5-[2-(2-Diethylaminomethylcyclopropyl)-4-fluorobenzenesulfonyl-amino]-1,1a,2,7b-tetrahydrocyclopropa[c]chromene-4-carboxylic acid]: the 50% inhibitory concentration (IC50) lay in the range of 50 to 500 nM.
As to `O=C(O)c1c(NS(=O)(=O)c2ccc(F)cc2C2CC2CN2CCCC2)ccc2c1OC[C@@H]1C[C@H]21` (stereo partly drawn) [Example 4, (1aR,7bS)-5-{4-Fluoro-2-[2-(pyrrolidin-1-ylmethyl)cyclopropyl]benzene-sulfonylamino}-1,1a,2,7b-tetrahydrocyclopropa[c]chromene-4-carboxylic acid], the IC50 fell in the range of 50 to 500 nM.
For the compound `CCN(CC)CC(C)(C)Cc1cc(F)ccc1S(=O)(=O)Nc1ccc2c(c1C(=O)O)OC[C@@H]1C[C@H]21` [Example 5, (1aR,7bS)-5-[2-(3-Diethylamino-2,2-dimethylpropyl)-4-fluorobenzenesulfonyl-amino]-1,1a,2,7b-tetrahydrocyclopropa[c]chromene-4-carboxylic acid], the IC50 is less than 50 nM.
Regarding `O=C(O)c1c(NS(=O)(=O)c2ccc(F)cc2C[C@@H]2CCNC2)ccc2c1OC[C@@H]1C[C@H]21` [Example 6, (1aR,7bS)-5-[4-Fluoro-2-((R)-pyrrolidin-3-ylmethyl)benzenesulfonylamino]-1,1a,2,7b-tetrahydrocyclopropa[c]chromene-4-carboxylic acid], the IC50 is less than 50 nM.
As for `O=C(O)c1c(NS(=O)(=O)c2ccc(F)cc2C[C@H]2CCNC2)ccc2c1OC[C@@H]1C[C@H]21` [Example 7, (1aR,7bS)-5-[4-Fluoro-2-((S)-pyrrolidin-3-ylmethyl)benzenesulfonylamino]-1,1a,2,7b-tetrahydrocyclopropa[c]chromene-4-carboxylic acid], the IC50 is less than 50 nM.
Still for that read-out and setting: the same measure for `CC(C)(O)CN1CC[C@@H](Cc2cc(F)ccc2S(=O)(=O)Nc2ccc3c(c2C(=O)O)OC[C@@H]2C[C@H]32)C1` [Example 8, (1aR,7bS)-5-{4-Fluoro-2-[(R)-1-(2-hydroxy-2-methylpropyl)pyrrolidin-3-ylmethyl]benzenesulfonylamino}-1,1a,2,7b-tetrahydrocyclopropa[c]chromene-4-carboxylic acid]: less than 50 nM; for `O=C(O)c1c(NS(=O)(=O)c2ccc(F)cc2CC2CN3CCC2CC3)ccc2c1OC[C@@H]1C[C@H]21` (stereo partly drawn) [Example 9, (1aR,7bS)-5-[2-(1-Azabicyclo[2.2.2]oct-3-ylmethyl)-4-fluorobenzenesulfonyl-amino]-1,1a,2,7b-tetrahydrocyclopropa[c]chromene-4-carboxylic acid]: less than 50 nM; for `CCN1CCC[C@@H]1CCc1cc(F)ccc1S(=O)(=O)Nc1ccc2c(c1C(=O)O)OC[C@@H]1C[C@H]21` [Example 16, (1aR,7bS)-5-{2-[2-((S)-1-Ethylpyrrolidin-2-yl)ethyl]-4-fluorobenzene-sulfonylamino}-1,1a,2,7b-tetrahydrocyclopropa[c]chromene-4-carboxylic acid]: less than 50 nM.
The same measure, in the same setting: the same measure for `O=C(O)c1c(NS(=O)(=O)c2ccc(F)cc2C[C@@H]2CCN(CCO)C2)ccc2c1OC[C@@H]1C[C@H]21` [Example 17, (1aR,7bS)-5-{4-Fluoro-2-[(R)-1-(2-hydroxyethyl)pyrrolidin-3-ylmethyl]-benzenesulfonylamino}-1,1a,2,7b-tetrahydrocyclopropa[c]chromene-4-carboxylic acid]: less than 50 nM.
`CC1(O)CCN(C/C=C\c2cc(F)ccc2S(=O)(=O)Nc2ccc3c(c2C(=O)O)OC[C@@H]2C[C@H]32)C1` (stereo partly drawn) [Example 20, (1aR,7bS)-5-{4-Fluoro-2-[(Z)-3-(3-hydroxy-3-methylpyrrolidin-1-yl)prop-1-enyl]benzenesulfonylamino}-1,1a,2,7b-tetrahydrocyclopropa[c]chromene-4-carboxylic acid]: the IC50 is less than 50 nM.
The same measure, in the same setting: then `O=C(O)c1c(NS(=O)(=O)c2ccc(F)cc2/C=C\CN2CCC(O)CC2)ccc2c1OC[C@@H]1C[C@H]21` [Example 21, (1aR,7bS)-5{4-Fluoro-2-[(Z)-3-(4-hydroxypiperidin-1-yl)prop-1-enyl]benzenesulfonylamino}-1,1a,2,7b-tetrahydrocyclopropa[c]chromene-4-carboxylic acid], with 50 to 500 nM; and `CC1(O)CCN(C/C=C\c2cc(F)ccc2S(=O)(=O)Nc2ccc3c(c2C(=O)O)OC[C@@H]2C[C@H]32)CC1` [Example 22, (1aR,7bS)-5-{4-Fluoro-2-[(Z)-3-(4-hydroxy-4-methylpiperidin-1-yl)prop-1-enyl]benzenesulfonylamino}-1,1a,2,7b-tetrahydrocyclopropa[c]chromene-4-carboxylic acid], with 50 to 500 nM; and `CCN1CC2C(C1)C2c1cc(F)ccc1S(=O)(=O)Nc1ccc2c(c1C(=O)O)OC[C@@H]1C[C@H]21` (stereo partly drawn) [Example 23, (1aR,7bS)-5-[2-(3-Ethyl-3-azabicyclo[3.1.0]hex-6-yl)-4-fluorobenzene-sulfonylamino]-1,1a,2,7b-tetrahydrocyclopropa[c]chromene-4-carboxylic acid], with 50 to 500 nM.
`O=C(O)c1c(NS(=O)(=O)c2ccc(F)cc2/C=C\[C@@H]2CCCN2)ccc2c1OC[C@@H]1C[C@H]21` [Example 24, (1aR,7bS)-5-{4-Fluoro-2-[(Z)-2-((S)-pyrrolidin-2-yl)ethenyl]benzenesulfonyl-amino}-1,1a,2,7b-tetrahydrocyclopropa[c]chromene-4-carboxylic acid]: the IC50 is less than 50 nM.
Same read-out and setting: the same measure for `O=C(O)c1c(NS(=O)(=O)c2ccc(F)cc2/C=C\CN2CC[C@H](CO)C2)ccc2c1OC[C@@H]1C[C@H]21` [Example 25, (1aR,7bS)-5-{4-Fluoro-2-[(Z)-3-((S)-3-hydroxymethylpyrrolidin-1-yl)prop-1-enyl]benzenesulfonylamino}-1,1a,2,7b-tetrahydrocyclopropa[c]chromene-4-carboxylic acid]: less than 50 nM; for `O=C(O)c1c(NS(=O)(=O)c2ccc(F)cc2/C=C\CN2CC[C@@H](CO)C2)ccc2c1OC[C@@H]1C[C@H]21` [Example 26, (1aR,7bS)-5-{4-Fluoro-2-[(Z)-3-((R)-3-hydroxymethylpyrrolidin-1-yl)prop-1-enyl]benzenesulfonylamino}-1,1a,2,7b-tetrahydrocyclopropa[c]chromene-4-carboxylic acid]: less than 50 nM.

The same test, now with this note: manganese enzyme, 30 minutes at 25° C., pH 7.5, 0.75 mM MAS substrate, 1% DMSO; listed as First eluting enantiomer of (1aR,7bS)-5-[2-(2-diethylamino-methylcyclopropyl)-4-.
Consider `CCN(CC)CC1CC1c1cc(F)ccc1S(=O)(=O)Nc1ccc2c(c1C(=O)O)OC[C@@H]1C[C@H]21` (stereo partly drawn) [Example 2], for which the IC50 is less than 50 nM.

Staying with this test, now noted: manganese enzyme, 30 minutes at 25° C., pH 7.5, 0.75 mM MAS substrate, 1% DMSO; listed as Second eluting enantiomer of (1aR,7bS)-5-[2-(2-diethylamino-methylcyclopropyl)-4.
Regarding `CCN(CC)CC1CC1c1cc(F)ccc1S(=O)(=O)Nc1ccc2c(c1C(=O)O)OC[C@@H]1C[C@H]21` (stereo partly drawn) [Example 3], the IC50 lay within 50 to 500 nM.
